The results in this text go back to ChEMBL document CHEMBL2150911, “Charting, navigating, and populating natural product chemical space for drug discovery” (J Med Chem, 2012).

Assay [1] has as its target T1, Polyunsaturated fatty acid 5-lipoxygenase (Homo sapiens, UniProt P09917).
T1 sequence (P09917 whole entry): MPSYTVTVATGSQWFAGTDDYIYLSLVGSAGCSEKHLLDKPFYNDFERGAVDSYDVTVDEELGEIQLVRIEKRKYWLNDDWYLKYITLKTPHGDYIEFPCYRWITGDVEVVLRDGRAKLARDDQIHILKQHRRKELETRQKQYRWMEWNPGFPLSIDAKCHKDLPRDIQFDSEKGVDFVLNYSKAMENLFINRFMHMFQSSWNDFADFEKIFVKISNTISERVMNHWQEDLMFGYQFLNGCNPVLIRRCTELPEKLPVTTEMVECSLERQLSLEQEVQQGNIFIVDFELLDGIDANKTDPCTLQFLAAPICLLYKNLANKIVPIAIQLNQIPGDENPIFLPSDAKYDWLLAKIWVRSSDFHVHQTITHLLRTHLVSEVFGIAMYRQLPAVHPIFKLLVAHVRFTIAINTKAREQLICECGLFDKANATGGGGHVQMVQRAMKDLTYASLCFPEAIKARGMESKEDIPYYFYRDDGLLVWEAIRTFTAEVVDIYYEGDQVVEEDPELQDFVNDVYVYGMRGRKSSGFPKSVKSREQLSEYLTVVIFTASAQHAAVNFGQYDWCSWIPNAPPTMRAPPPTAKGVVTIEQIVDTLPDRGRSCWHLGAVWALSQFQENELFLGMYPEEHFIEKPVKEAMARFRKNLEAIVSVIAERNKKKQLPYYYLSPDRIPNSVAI
Put plainly: Inhibition of 5-LOX.

Assay [2] has as its target T2, M-phase inducer phosphatase 1 (Homo sapiens, UniProt P30304).
T2 sequence (P30304 whole entry): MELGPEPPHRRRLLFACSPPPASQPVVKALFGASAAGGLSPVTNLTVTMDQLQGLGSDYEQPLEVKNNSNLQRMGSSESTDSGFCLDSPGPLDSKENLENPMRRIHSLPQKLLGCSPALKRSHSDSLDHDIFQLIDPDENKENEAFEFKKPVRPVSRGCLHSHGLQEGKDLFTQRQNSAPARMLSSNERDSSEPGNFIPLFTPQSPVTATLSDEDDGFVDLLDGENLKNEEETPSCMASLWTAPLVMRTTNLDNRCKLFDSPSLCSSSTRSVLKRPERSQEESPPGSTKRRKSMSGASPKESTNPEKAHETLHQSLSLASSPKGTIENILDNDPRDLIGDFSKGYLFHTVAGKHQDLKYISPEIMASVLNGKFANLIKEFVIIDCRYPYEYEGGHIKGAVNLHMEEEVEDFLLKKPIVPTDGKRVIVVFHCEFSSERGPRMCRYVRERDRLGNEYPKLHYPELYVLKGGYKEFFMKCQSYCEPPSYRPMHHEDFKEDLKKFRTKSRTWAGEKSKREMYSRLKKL
Put plainly: Inhibition of His-tagged Cdc25A expressed in the Escherichia coli BL21(DE3) using p-nitrophenyl phosphate as substrate for 80 mins by spectrophotometry.

As usually defined, the IC50 is the concentration at which inhibition is half-maximal. The low end stands for inhibition by little substance, the high end for a need for much substance. Regarding `c1ccc(COc2ccc3ccccc3c2)cc1`, in assay [1], half-maximal inhibition (IC50) required 7.5 µM.

In assay [1], `COC1(c2cccc(COc3ccc4ccccc4c3)c2)CCOCC1` displayed an IC50 of 1.5 µM.

As for `CC(c1ccc(OCc2ccccc2)cc1)N(O)C(N)=O` (centres undefined), in assay [1], 0.36 µM corresponded to half-maximal inhibition (IC50).

`COC(=O)[C@@H]1[C@H]2C[C@H]3c4[nH]c5ccccc5c4CCN3C[C@@H]2CC[C@@H]1O` [YOHIMBINE] gave an IC50 in assay [2] of 22.3 µM.
